The text below walks through data of patent publication US20030065001A1, “Fungicidal combinations comprising quinazolinone” (priority 1997, published 2003).

This test has as its system Erysiphe graminis f.sp. tritici. Put plainly: Efficacy against Erysiphe graminis f.sp. tritici on wheat (Example B-1). The test is classed as in vivo. Particulars: single active ingredient. An excerpt:
A synergistic effect exists whenever the action of an active ingredient combination is greater than the sum of the actions of the individual components. The action to be expected E for a given active ingredient combination obeys the so-called COLBY formula and can be calculated as follows (COLBY, S.R. “Calculating synergistic and antagonistic responses of herbicide combination”. Weeds, Vol. 15, pages 20-22; 1967):
ppm=milligrams of active ingredient (=a.i.) per litre of spray mixture
X=% action by active ingredient I using p ppm of active ingredient
Y=% action by active ingredient II using q ppm of active ingredient.
According to Colby, the expected (additive) action of active ingredients I+II using p+q ppm of [formula]
If the action actually observed (O) is greater than the expected action (E), then the action of the combination is superadditive, i.e. there is a synergistic effect.
Wheat plants c.v. “Arina”, about 10 days old, are sprayed with aqueous suspensions of the active ingredients or mixtures thereof. One day later, the plants are inoculated by dusting with spores of Erysiphe graminis. The tests may also be carried out with curative applications, i.e. application 1-3 days after artificial inoculation of the plants. The plants are incubated in the greenhouse or in climate chambers at 20° C., 70% relative humidity. 7 to 10 days after inoculation, fungal attack on primary leaves is assessed.
The efficacy of the rest combinations and the single active ingredients in the above tests is determined by comparing the degree of fungal attack with that on untreated, similarly inoculated check plants.

For `Cc1cc(C2CC2)nc(Nc2ccccc2)n1` [Cyprodinil, cyprodinil], the “% activity observed” value by setting is: (Table 2, 10 ppm) 0%; (Table 2, 25 ppm) 15%.

For the compound `N#Cc1c[nH]cc1-c1cccc2c1OC(F)(F)O2` [Fludioxonil, fludioxonil], the “% activity observed” value (Table 1, 250 ppm) is 20%.

As to `CON=C(C(=O)OC)c1ccccc1CON=C(C)c1cccc(C(F)(F)F)c1` [cmpd. V, methyl 2-{2-[4-(3-trifluoromethylphenyl)-3-aza-2-oxa-3-pentenyl]-phenyl}-2-methoxyimino-acetate], the inhibition at 0.25 ppm (Blumeria graminis, Table 3, 0.25 ppm, read-out: % activity observed) came to 29%. The inhibition at 0.5 ppm (Blumeria graminis, Table 3, 0.5 ppm, read-out: % activity observed) worked out at 54%.
